The nature of data set [1]: Vapour sorption analysis (GVS, hygroscopicity). Type of data set: physicochemical. Conditions: % uptake at 90% RH. The method, then:
Approximately 10 mg of the sample was placed into a mesh vapor sorption balance pan and loaded into an IGASorp Moisture Sorption Analyzer balance by Hiden Analytical. The sample was subjected to a ramping profile from 40 to 90% relative humidity (RH) at 10% increments to 90% RH, maintaining the sample at each step until a stable weight had been achieved (98% step completion). After completion of the sorption cycle, the sample was dried using the same procedure (initially from 90% RH to 0% RH and finally taken back to the starting point of 40% RH). The sorption/desorption profiles were then repeated to give a double-cycle plot. The weight changes during the sorption/desorption cycles were plotted, allowing for the hygroscopic nature of the sample to be determined.

Data set [2] in a line: Stability stress testing (ambient light, 40° C./75% RH, 80° C., 7 days; XRPD and HPLC purity). Type of data set: physicochemical. Conditions: for XRPD after storage: 7 days; for Purity, 80° C. / Purity, Ambient light / Purity, 40° C./75% RH: HPLC purity after 7 days, open vial; for Purity, Ambient light: room temperature; for Input purity: HPLC purity before stress storage; for Chemical Stability: summary in Table 17. The method, then: Approximately 5 mg of the appropriate samples were placed into 2 mL clear glass vials and the vials were all stored open under the conditions of ambient light, 40° C./75% RH, and 80° C. for 7 days, respectively. The ambient light sample was left open on the bench at room temperature. The 80° C. sample was placed open into an 80° C. oven.

Data set [3] can be described thus: Thermodynamic aqueous solubility studies (de-ionized water, 24 h, HPLC concentration, filtrate pH, XRPD of solid). To be noted: for solubility at 24 h: de-ionized water, pH 6.97, water, thermodynamic from solid; for pH at Saturation: pH of filtrate after 24 h slurry in de-ionized water (pH 6.97), ambient temperature.
Method: The resulting solid material was isolated by centrifugation and analyzed by XRPD, while the filtrate was analyzed by HPLC for concentration determination. The pH of the resulting filtrate was also determined.
Setting [4] is: all storage conditions (ambient light, 40° C./75% RH, 80° C.).
The mark [5] stands for this setting: Solubility in Water, de-ionized water (pH 6.97), slurry shaken at ambient temperature for 24 h, filtrate by HPLC, salts of Compound (A).
[6] abbreviates: other 2 conditions (40° C./75% RH and 80° C.).

As to “isopropyl 2-((5-acrylamido-4-((2-(dimethylamino)ethyl) (methyl)amino)-2-methoxyphenyl)amino)-4-(1-methyl-1H-indol-3-yl)pyrimidine-5-carboxylate hippurate”, the “GVS (Hygroscopicity)” value in data set [1] stood at 0.2%. In data set [2] (setting [4]), the XRPD after storage entry was “No change under all storage”. Further, in data set [2], the “Purity, 80° C.” value turned out to be 99.6; the Input purity is 99.7; the “Chemical Stability” value is on record as “Stable”. Also, in data set [2] (ambient light), the “Purity, Ambient light” value is 99.6.
Turning to `Br.C=CC(=O)Nc1cc(Nc2ncc(C(=O)OC(C)C)c(-c3cn(C)c4ccccc34)n2)c(OC)cc1N(C)CCN(C)C` [HBr, isopropyl 2-((5-acrylamido-4-((2-(dimethylamino)ethyl) (methyl)amino)-2-methoxyphenyl)amino)-4-(1-methyl-1H-indol-3-yl)pyrimidine-5-carboxylate hydrobromide], in data set [1], the “GVS (Hygroscopicity)” value turned out to be 0.6%. Moreover, the solubility (commonly how much of the substance goes into solution per volume) at 24 h in data set [3] (setting [5]) came to 0.1 mg/mL. In data set [3], the “pH at Saturation” value was 6.30. Further, the XRPD after storage result in data set [2] (setting [4]) is “No change under all storage”. Besides, in data set [2], the “Purity, 40° C./75% RH” value turned out to be 99.6; the “Purity, 80° C.” value is 99.5; the Input purity came out at 99.7; the “Chemical Stability” value is reported as “Stable”. Moreover, in data set [2] (ambient light), the “Purity, Ambient light” value is 99.6.
For the compound `C=CC(=O)Nc1cc(Nc2ncc(C(=O)OC(C)C)c(-c3cn(C)c4ccccc34)n2)c(OC)cc1N(C)CCN(C)C.Cl` [HCl, isopropyl 2-((5-acrylamido-4-((2-(dimethylamino)ethyl) (methyl)amino)-2-methoxyphenyl)amino)-4-(1-methyl-1H-indol-3-yl)pyrimidine-5-carboxylate hydrochloride], in data set [1], the “GVS (Hygroscopicity)” value is recorded as 10.%. Besides, in data set [3] (setting [5]), the solubility at 24 h came to 5.8 mg/mL. Further, in data set [3], the “pH at Saturation” value worked out at 6.47. For the same compound, in data set [2] (ambient light), the XRPD after storage result was “No change at ambient light;” and the “Purity, Ambient light” value was found to be 95.1. Further, in data set [2] (setting [6]), the XRPD after storage entry is on record as “changes observed in other 2”. In data set [2], the “Purity, 40° C./75% RH” value is 74.5; the “Purity, 80° C.” value was found to be 91.3; the Input purity came out at 99.0; the “Chemical Stability” value is listed as “Degradation”.
For `C=CC(=O)Nc1cc(Nc2ncc(C(=O)OC(C)C)c(-c3cn(C)c4ccccc34)n2)c(OC)cc1N(C)CCN(C)C.O=S(=O)(O)O` [Sulfate, isopropyl 2-((5-acrylamido-4-((2-(dimethylamino)ethyl) (methyl)amino)-2-methoxyphenyl)amino)-4-(1-methyl-1H-indol-3-yl)pyrimidine-5-carboxylate sulfate], the “GVS (Hygroscopicity)” value in data set [1] came out at 11%. Also, in data set [3], the solubility at 24 h was greater than 240 mg/mL and the “pH at Saturation” value is listed as 2.19. In data set [2] (ambient light), the XRPD after storage result was “No change at ambient light;” and the “Purity, Ambient light” value was found to be 98.6. Besides, in data set [2], the “Purity, 40° C./75% RH” value is given as 96.2; the “Purity, 80° C.” value worked out at 94.9; the Input purity was 98.3; the “Chemical Stability” value was “Degradation”.
As for `C=CC(=O)Nc1cc(Nc2ncc(C(=O)OC(C)C)c(-c3cn(C)c4ccccc34)n2)c(OC)cc1N(C)CCN(C)C.CS(=O)(=O)O` [Mesylate, isopropyl 2-((5-acrylamido-4-((2-(dimethylamino)ethyl) (methyl)amino)-2-methoxyphenyl)amino)-4-(1-methyl-1H-indol-3-yl)pyrimidine-5-carboxylate mesylate], the “GVS (Hygroscopicity)” value in data set [1] is recorded as “Drying Form”. The solubility at 24 h in data set [3] (setting [5]) was greater than 70 mg/mL. Also, in data set [3], the “pH at Saturation” value was 2.90. Moreover, in data set [2] (ambient light), the XRPD after storage result is recorded as “No change at ambient light;” and the “Purity, Ambient light” value turned out to be 99.6. For the same compound, in data set [2], the “Purity, 40° C./75% RH” value turned out to be 99.6; the “Purity, 80° C.” value was found to be 99.6; the Input purity was 99.7; the “Chemical Stability” value is listed as “Stable”.
Regarding `C=CC(=O)Nc1cc(Nc2ncc(C(=O)OC(C)C)c(-c3cn(C)c4ccccc34)n2)c(OC)cc1N(C)CCN(C)C` [Free Base, isopropyl 2-((5-acrylamido-4-((2-(dimethylamino)ethyl) (methyl)amino)-2-methoxyphenyl)amino)-4-(1-methyl-1H-indol-3-yl)pyrimidine-5-carboxylate], the “GVS (Hygroscopicity)” value in data set [1] is 0.3%. Further, in data set [3], the solubility at 24 h was less than 0.01 mg/mL and the “pH at Saturation” value is 7.81. Further, in data set [2], the “Purity, 40° C./75% RH” value came to 99.5 and the “Purity, 80° C.” value amounted to 99.5. For the same compound, the “Purity, Ambient light” value in data set [2] (ambient light) amounted to 99.5.
For the compound `C=CC(=O)Nc1cc(Nc2ncc(C(=O)OC(C)C)c(-c3cn(C)c4ccccc34)n2)c(OC)cc1N(C)CCN(C)C.O=C(O)C(=O)O` [Oxalate, isopropyl 2-((5-acrylamido-4-((2-(dimethylamino)ethyl) (methyl)amino)-2-methoxyphenyl)amino)-4-(1-methyl-1H-indol-3-yl)pyrimidine-5-carboxylate oxalate], the “GVS (Hygroscopicity)” value in data set [1] is listed as 2.0%. In addition, the solubility at 24 h in data set [3] (setting [5]) is 6.8 mg/mL. Further, the “pH at Saturation” value in data set [3] came out at 3.00. In addition, in data set [2] (ambient light), the XRPD after storage entry was “No change at ambient light;” and the “Purity, Ambient light” value came out at 99.6. The XRPD after storage result in data set [2] (setting [6]) is reported as “minor changes observed in”. In data set [2], the “Purity, 40° C./75% RH” value is listed as 99.6; the “Purity, 80° C.” value was determined as 99.6; the Input purity was determined as 99.7; the “Chemical Stability” value is “Stable”.
`C=CC(=O)Nc1cc(Nc2ncc(C(=O)OC(C)C)c(-c3cn(C)c4ccccc34)n2)c(OC)cc1N(C)CCN(C)C.O=C(O)/C=C/C(=O)O` [Fumarate, isopropyl 2-((5-acrylamido-4-((2-(dimethylamino)ethyl) (methyl)amino)-2-methoxyphenyl)amino)-4-(1-methyl-1H-indol-3-yl)pyrimidine-5-carboxylate fumarate]: the “GVS (Hygroscopicity)” value in data set [1] was determined as 2.0%. The solubility at 24 h in data set [3] (setting [5]) was determined as 0.1 mg/mL. Also, the “pH at Saturation” value in data set [3] is on record as 3.98. Further, the XRPD after storage entry in data set [2] (setting [4]) is given as “No change under all storage”. For the same compound, in data set [2], the “Purity, 40° C./75% RH” value is recorded as 99.5; the “Purity, 80° C.” value is 99.5; the Input purity was 99.7; the “Chemical Stability” value is listed as “Stable”. Further, in data set [2] (ambient light), the “Purity, Ambient light” value is given as 99.5.

For the origin of these results see patent US12084431B2, “Pharmaceutical salts of pyrimidine derivatives and method of treating disorders” (ARIAD Pharmaceuticals, Inc., priority 2018, dated 2024).
